Values of other authors as cited in patent US20150038526A1, “FLUORINE-CONTAINING 5-[2-(PYRID-3-YL)-ETHYL]-2,3,4-TETRAHYDRO-1H-PYRIDO[4,3-B]INDOLES AS AGENTS FOR REDUCING UNCONTROLLED PROTEIN AGGREGATION” (FEDERALNOE GOSUDARSTVENNOE BUDZHETNOE UCHREZHDENIE NAUKI …, priority 2011, published 2015).

Tested on: gamma-synuclein protein
Details: tissues of the nervous system of model animals

SMILES: Cc1ccc2c(c1)c1c(n2CCc2ccc(C)nc2)CCN(C)C1 [Dimebon]
- formation and/or elimination of amyloid-like inclusions formed by gamma-synuclein: modulates the molecular cellular processes of formation and/or elimination of pathological protein depositions
